What is called IC50 is the concentration needed to halve the response being measured.

This is an account of results in US8043631B2, “Tumor targeting drug-loaded particles” (priority 2005, dated 2011).

One experiment relates to peritoneal cancer. Conditions: intraperitoneal administration; cited from earlier work.
Experiment [1] deals with stage T0 and T1 bladder tumors obtained from human patients. Conditions: cited from earlier work.
The test system of experiment [2] is human head and neck FaDu xenografts. Briefly: nano-sized latex bead delivery and dispersion in tumors after tumor priming. The conditions noted are these: paclitaxel 40 milligrams per kilogram intravenously, beads 48 hours later, tumors excised 24 hours after. The experiment is classed as in vivo, Mice.
Procedure: Mice were implanted subcutaneously with human head and neck FaDu xenografts, and divided in two groups. […] The control group (without tumor priming) only received the vehicle. Forty-eight hours later, animals received an intravenous injection of red fluorescent latex beads of 100, or 200 nm diameter. Tumors were excised 24 hours after the injection of the beads and examined. […] The percentage of area in tumors occupied by particles was calculated as (total number of deep-derived pixels) divided by (total number of pixels per microscopic field), which provided a measurement of the dispersion area. The average bead concentration in tumors was the average fluorescence intensity, which was calculated as (mean intensity of bead-derived pixels multiplied by total number of bead-derived pixels) divided by (total number of pixels per microscopic field). Eight tumors were used per data point.
Experiment [3] has as its system Human RT4 bladder transitional bladder cancer cells. Briefly: cytotoxicity in RT4 cells, immediate and delayed effect, sulforhodamine B assay. Type of experiment: cell-based. Conditions: immediate effect. Background: The SRB assay estimates cell density from bound dye.
Experiment [4] has as its system Histocultures of head and neck FaDu xenograft tumors. The experiment in a line: Lipo-siRNA penetration into tumor histocultures with and without tumor priming. Type of experiment: cell-based. The conditions noted are these: paclitaxel 0.5 μM maintained for 48 hour, versus no priming. The protocol:
Histocultures of head and neck FaDu xenograft tumors were maintained in vitro. Penetration of siRNA, formulated in cationic liposomes, was evaluated with and without tumor priming pretreatment. To facilitate detection, siRNA were labeled with green fluorescence (siGLO) and lipids were labeled with a red fluorescence marker. […] In the overlay picture, the red and green fluorescent images are combined. […] The bars indicate a length of 100 μm.

Take `N.N.[Cl][Pt][Cl]` [cisplatin]: the “extension of survival time in patients” value in the experiment with peritoneal cancer is “about 20%”.
On to `CC(=O)O[C@H]1C(=O)[C@@]2(C)[C@H]([C@H](OC(=O)c3ccccc3)[C@]3(O)C[C@H](OC(=O)[C@H](O)[C@@H](NC(=O)c4ccccc4)c4ccccc4)C(C)=C1C3(C)C)[C@]1(OC(C)=O)CO[C@@H]1C[C@@H]2O` [paclitaxel], for which, in experiment [1], the IC50 was 1.2 µM. Moreover, in experiment [2], the “delivery of latex beads to tumors after tumor priming” value is “enhanced the delivery of the 100- and 200-nm latex beads”. The maximal inhibition in experiment [3] (48 hours) worked out at 60%; in experiment [3] (96 hours), 84%. For the same molecule, the “penetration of siGLO-loaded liposomes after paclitaxel priming” value in experiment [4] is reported as “at least five-fold deeper”.
